Consider 15 compounds from article PMC8271926, “1,3,5-Triazine Nitrogen Mustards with Different Peptide Group as Innovative Candidates for AChE and BACE1 Inhibitors” (Molecules, 2021).

The target of series [1] is T1, AChE (from electrophorus electricus) (Electrophorus electricus, UniProt O42275).
T1 construct: purchased Sigma-Aldrich C3389
As to the kind of experiment: In vitro AChE inhibition, Ellman's colorimetric method. It is filed as biochemical.

Series [2] has as its target T2, BACE1 (from equine serum) (Homo sapiens, UniProt P56817).
T2 construct: purchased Sigma-Aldrich CS0010
Put plainly: In vitro BACE1 inhibition, FRET assay. It is filed as biochemical.

In a further series the test system is AChE. Particulars: Jameel et al.; read-out: AChE inhibition IC50; cited from earlier work.
For series [3] the following is noted: cell-based assays; cited from earlier work.
Another series has as its system BACE-1. Particulars: in vitro; cited from earlier work.
In a further series the test system is GSK-3β. Particulars: in vitro; cited from earlier work.
Series [4] relates to BACE1. Particulars: Yazdani et al.; cited from earlier work.
The subject of series [5] is BACE1. Particulars: Iraji et al.; cited from earlier work.
Setting [6] is: mean ± SD of three independent experiments, read-out: BACE1 IC50.

Read-outs that look alike come from different tables or passages of the source.

For orientation: IC50 means the point on the concentration scale where inhibition reaches its midpoint.

T1 sequence (O42275 24-633): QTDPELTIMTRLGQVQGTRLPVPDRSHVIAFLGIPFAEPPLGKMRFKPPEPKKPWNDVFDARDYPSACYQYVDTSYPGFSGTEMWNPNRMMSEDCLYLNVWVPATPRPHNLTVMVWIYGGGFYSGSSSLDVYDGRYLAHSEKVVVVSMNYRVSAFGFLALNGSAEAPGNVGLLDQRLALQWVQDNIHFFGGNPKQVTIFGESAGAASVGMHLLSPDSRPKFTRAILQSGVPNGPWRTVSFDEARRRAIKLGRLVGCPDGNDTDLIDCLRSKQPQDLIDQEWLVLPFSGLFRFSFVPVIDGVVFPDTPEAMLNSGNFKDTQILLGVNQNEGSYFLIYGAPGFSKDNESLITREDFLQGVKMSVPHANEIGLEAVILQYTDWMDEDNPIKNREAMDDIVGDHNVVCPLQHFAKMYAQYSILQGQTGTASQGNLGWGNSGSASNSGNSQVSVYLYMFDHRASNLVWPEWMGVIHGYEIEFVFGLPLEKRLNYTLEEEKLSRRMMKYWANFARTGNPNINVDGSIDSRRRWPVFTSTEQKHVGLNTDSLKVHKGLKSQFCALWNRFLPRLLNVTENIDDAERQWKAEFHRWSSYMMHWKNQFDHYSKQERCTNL
T2 sequence (P56817 46-457 limits assumed): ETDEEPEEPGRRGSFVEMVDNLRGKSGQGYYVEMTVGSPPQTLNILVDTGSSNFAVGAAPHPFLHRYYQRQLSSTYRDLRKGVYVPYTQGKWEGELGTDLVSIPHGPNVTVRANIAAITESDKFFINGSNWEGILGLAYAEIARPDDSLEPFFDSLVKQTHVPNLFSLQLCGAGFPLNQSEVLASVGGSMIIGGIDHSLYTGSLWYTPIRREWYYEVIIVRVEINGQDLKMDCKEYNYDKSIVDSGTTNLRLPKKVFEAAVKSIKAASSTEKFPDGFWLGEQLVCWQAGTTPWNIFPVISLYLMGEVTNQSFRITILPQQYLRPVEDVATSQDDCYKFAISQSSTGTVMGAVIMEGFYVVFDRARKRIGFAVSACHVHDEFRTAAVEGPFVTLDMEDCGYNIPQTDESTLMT

As for `COC(=O)C(C)NC(=O)C(C)(C)Nc1nc(OC)nc(N2CCN(CCCl)CC2)n1` (stereo not drawn) [4e, 2-[4-(2-Chloroethyl)Piperazin-1-yl]-4-Methoxy-6-(NH-Aib-Ala-OMe) -1,3,5 -Triazine], the values for the IC50 in series [1] and in series [2] (setting [6]) were 0.789 ± 0.031 µM and 51 ± 7.99 µM, respectively.
`COc1ccc(Nc2nc(Cl)nc(N3CCN(c4cc(C)nc5ccnn45)CC3)n2)cc1` [D]: the IC50 with AChE is 0.092 µM.
In the case of `COC(=O)C(C)NC(=O)C(COCc1ccccc1)Nc1nc(OC)nc(N2CCN(CCCl)CC2)n1` (stereo not drawn) [4d, 2-[4-(2-Chloroethyl)Piperazin-1-yl]-4-Methoxy-6-(NH-Ser (Bn)-Ala -OMe) -1,3,5-Triazine], the IC50 in series [1] was found to be 0.387 ± 0.054 µM; in series [2] (setting [6]), 58.1 ± 9.69 µM.
With `NC1=NC(c2ccc(F)cc2)NC(=O)N1` (stereo not drawn) [E], in series [3], the “neuroprotective and neurogenic activities” value is listed as “effective”; the neurotoxicity entry was “no neurotoxicity”. Further, the IC50 with BACE-1 is 18.03 ± 0.01 µM. Moreover, the IC50 in the series on GSK-3β is 14.7 ± 0.78 µM.
Take `COC(=O)C(C)NC(=O)C(Cc1c[nH]c2ccccc12)Nc1nc(OC)nc(N2CCN(CCCl)CC2)n1` (stereo not drawn) [4g, 2-[4-(2-Chloroethyl)Piperazin-1-yl]-4-Methoxy-6-(NH-Trp-Ala-OMe)- 1,3,5- Triazine]: the IC50 in series [1] came to 0.122 ± 0.014 µM; in series [2] (setting [6]) it was 28.1 ± 3.69 µM.
The like results for `COC(=O)C(C)NC(=O)C(CC(=O)OC(C)(C)C)Nc1nc(OC)nc(N2CCN(CCCl)CC2)n1` (stereo not drawn) [4b, 2-[4-(2-Chloroethyl)Piperazin-1-yl]-4-Methoxy-6-(NH-Asp(OtBu)-Ala-OMe)-1,3,5-Triazine] were, in that order, 0.065 ± 0.002 µM and 33.8 ± 3.91 µM.
In the case of `COC(=O)C(C)NC(=O)C(Cc1cn(C(=O)OC(C)(C)C)c2ccccc12)Nc1nc(OC)nc(N2CCN(CCCl)CC2)n1` (stereo not drawn) [4c, 2-[4-(2-Chloroethyl)Piperazin-1-yl]-4-Methoxy-6-(NH-Trp(Boc)-Ala-OMe)-1,3,5-Triazine], the IC50 is 0.114 ± 0.012 µM in series [1] and 18.1 ± 2.69 µM in series [2] (setting [6]).
For the compound `COC(=O)C(C)NC(=O)C(CCCCNC(=O)OC(C)(C)C)Nc1nc(OC)nc(N2CCN(CCCl)CC2)n1` (stereo not drawn) [4a, 2-[4-(2-Chloroethyl)Piperazin-1-yl]-4-Methoxy-6-(NH-Lys(Boc)-Ala -OMe)-1,3,5-Triazine], the IC50 in series [1] turned out to be 0.055 ± 0.001 µM; in series [2] (setting [6]) it was 11.1 ± 2.29 µM.
As to `Cc1cccc(Nc2nc(Cl)nc(N3CCN(c4cc(C)nc5ccnn45)CC3)n2)c1` [C], the IC50 in the series on AChE is 0.065 µM.
As to `Clc1ccc(Cn2cc(COc3ccc(/C=N/Nc4nnc(-c5ccccc5)c(-c5ccccc5)n4)cc3)nn2)cc1` [F], the IC50 in the series on BACE1 [4] is 8.55 ± 3.37 µM.
For the compound `Oc1ccc(/C=N/Nc2nnc(-c3cccs3)c(-c3cccs3)n2)c(O)c1` [H], the IC50 in the series with BACE1 [5] is 0.91 µM.
Turning to `COC(=O)C(C)NC(=O)C(CCCNC(=N)N[N+](=O)[O-])Nc1nc(OC)nc(N2CCN(CCCl)CC2)n1` (stereo not drawn) [4f, 2-[4-(2-Chloroethyl)Piperazin-1-yl]-4-Methoxy-6-(NH-Arg(NO2)-Ala-OMe) -1,3,5-Triazine], the values for the IC50 in series [1] and in series [2] (setting [6]) were 1.44 ± 0.029 µM and 52 ± 8.55 µM, respectively.
As for `ClCCN1CCN(c2nc(Nc3ccccc3)nc(N3CCN(CCCl)CC3)n2)CC1` [A], the IC50 in series [1] amounted to 0.051 ± 0.001 µM; in series [2] (setting [6]) it was 9 ± 0.22 µM.
For `O=[N+]([O-])c1ccc(Cn2cc(COc3ccc(/C=N/Nc4nnc(-c5ccccc5)c(-c5ccccc5)n4)cc3)nn2)cc1` [G], in the series with BACE1 [4], the IC50 is 11.4 ± 2.01 µM.
As to `COC(=O)C(C)NC(=O)C(Cc1cn(S(=O)(=O)c2ccc(C)cc2)cn1)Nc1nc(OC)nc(N2CCN(CCCl)CC2)n1` (stereo not drawn) [4h, 2-[4-(2-Chloroethyl)Piperazin-1-yl]-4-Methoxy-6-(NH-His(Ts)-Ala-OMe)-1,3,5-Triazine], the IC50 in series [1] (read-out: AChE IC50, AChE from electric eel, Ellman's method, mean ± SD of three independent experiments) turned out to be 0.067 ± 0.003 µM; in series [2] (read-out: BACE1 IC50, mean ± SD of three independent experiments) it was 14.2 ± 3.45 µM.
